Assay results taken from ChEMBL document CHEMBL3045711, “Neonicotinoid insecticides: oxidative stress in planta and metallo-oxidase inhibition” (J Agric Food Chem, 2011).

Columns and labels:
Aldehyde oxidase 1 = biological target: T1, Aldehyde oxidase 1 (Oryctolagus cuniculus, UniProt P80456); format: ADME, tissue-based, Liver, Cytosol
T1 sequence (P80456 whole entry): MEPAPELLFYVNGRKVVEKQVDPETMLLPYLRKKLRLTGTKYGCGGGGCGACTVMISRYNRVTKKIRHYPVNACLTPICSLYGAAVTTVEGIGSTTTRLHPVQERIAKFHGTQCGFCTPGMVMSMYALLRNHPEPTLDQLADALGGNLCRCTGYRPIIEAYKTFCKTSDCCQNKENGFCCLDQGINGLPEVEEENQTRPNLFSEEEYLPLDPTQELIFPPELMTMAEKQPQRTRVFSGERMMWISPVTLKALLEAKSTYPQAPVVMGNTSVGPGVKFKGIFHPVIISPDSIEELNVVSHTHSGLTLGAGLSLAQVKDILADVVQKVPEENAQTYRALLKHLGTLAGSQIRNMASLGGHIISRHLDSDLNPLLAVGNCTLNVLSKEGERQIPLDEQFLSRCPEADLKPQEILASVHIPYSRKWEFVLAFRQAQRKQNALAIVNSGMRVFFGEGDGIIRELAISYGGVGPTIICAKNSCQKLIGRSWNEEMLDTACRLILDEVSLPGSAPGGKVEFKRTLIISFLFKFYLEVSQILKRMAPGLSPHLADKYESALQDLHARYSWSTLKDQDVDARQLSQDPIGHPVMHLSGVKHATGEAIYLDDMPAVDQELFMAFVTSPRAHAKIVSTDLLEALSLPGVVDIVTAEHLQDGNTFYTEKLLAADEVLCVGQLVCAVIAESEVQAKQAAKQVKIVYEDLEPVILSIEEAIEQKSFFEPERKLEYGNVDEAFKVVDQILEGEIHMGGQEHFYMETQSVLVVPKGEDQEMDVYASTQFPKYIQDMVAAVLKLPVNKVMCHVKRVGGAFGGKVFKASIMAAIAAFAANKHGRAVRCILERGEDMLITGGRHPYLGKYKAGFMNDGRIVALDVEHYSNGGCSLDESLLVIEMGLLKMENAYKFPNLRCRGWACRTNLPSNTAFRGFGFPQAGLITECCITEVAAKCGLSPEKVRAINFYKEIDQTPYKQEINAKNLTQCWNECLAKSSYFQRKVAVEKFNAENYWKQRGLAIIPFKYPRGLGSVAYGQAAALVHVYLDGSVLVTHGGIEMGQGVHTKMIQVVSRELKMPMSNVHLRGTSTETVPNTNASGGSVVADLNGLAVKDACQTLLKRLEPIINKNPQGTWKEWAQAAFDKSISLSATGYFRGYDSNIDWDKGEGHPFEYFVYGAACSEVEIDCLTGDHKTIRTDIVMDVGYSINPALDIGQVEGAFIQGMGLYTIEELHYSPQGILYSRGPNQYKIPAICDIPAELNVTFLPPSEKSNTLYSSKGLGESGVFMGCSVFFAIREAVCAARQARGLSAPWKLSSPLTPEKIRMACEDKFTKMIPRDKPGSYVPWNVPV
Description: Inhibition of Oryctolagus cuniculus (rabbit) AOX in liver cytosol

Tyrosinase = biological target: T2, Tyrosinase (Agaricus bisporus, UniProt O42713)
T2 sequence (O42713 whole entry): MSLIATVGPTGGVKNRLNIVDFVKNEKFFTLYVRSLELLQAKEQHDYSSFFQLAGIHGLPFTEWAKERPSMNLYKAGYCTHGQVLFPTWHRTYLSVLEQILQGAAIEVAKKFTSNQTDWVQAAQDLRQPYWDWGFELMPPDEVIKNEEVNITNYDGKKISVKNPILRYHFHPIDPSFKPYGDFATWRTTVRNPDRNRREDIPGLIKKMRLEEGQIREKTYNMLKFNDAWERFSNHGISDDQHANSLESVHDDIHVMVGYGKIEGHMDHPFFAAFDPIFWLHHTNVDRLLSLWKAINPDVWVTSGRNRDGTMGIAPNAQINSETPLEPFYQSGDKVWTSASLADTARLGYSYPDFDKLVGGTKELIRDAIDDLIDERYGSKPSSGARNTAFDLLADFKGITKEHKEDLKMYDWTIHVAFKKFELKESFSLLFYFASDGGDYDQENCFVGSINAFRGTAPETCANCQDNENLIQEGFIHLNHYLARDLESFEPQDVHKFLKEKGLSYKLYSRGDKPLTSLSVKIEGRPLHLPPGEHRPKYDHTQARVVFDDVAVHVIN
Description: Inhibition of Agaricus bisporus (mushroom) tyrosinase

Catalase = biological target: T3, Catalase (Bos taurus, UniProt P00432); format: ADME, tissue-based, Liver
T3 sequence (P00432 whole entry): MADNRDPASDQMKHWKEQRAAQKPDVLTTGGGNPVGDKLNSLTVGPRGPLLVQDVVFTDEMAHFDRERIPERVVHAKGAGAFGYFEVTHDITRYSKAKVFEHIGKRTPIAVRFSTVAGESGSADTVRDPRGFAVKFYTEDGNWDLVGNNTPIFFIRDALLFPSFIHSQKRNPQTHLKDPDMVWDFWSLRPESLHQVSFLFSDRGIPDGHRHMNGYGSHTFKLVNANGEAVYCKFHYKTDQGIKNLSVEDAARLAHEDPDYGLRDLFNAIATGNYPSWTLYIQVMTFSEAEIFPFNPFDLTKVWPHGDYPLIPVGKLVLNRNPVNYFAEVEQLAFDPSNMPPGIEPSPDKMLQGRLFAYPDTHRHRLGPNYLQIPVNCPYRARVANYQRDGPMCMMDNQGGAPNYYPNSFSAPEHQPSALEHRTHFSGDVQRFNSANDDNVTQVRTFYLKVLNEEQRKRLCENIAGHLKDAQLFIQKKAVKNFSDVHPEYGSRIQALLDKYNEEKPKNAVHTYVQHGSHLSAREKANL
Description: Inhibition of Bos taurus (bovine) CAT in liver

Spinacia oleracea = test: Phytotoxicity against Spinacia oleracea (spinach) seedlings assessed as lesions at 100 ppm after 9 days; format: organism-based; details: in vivo, 216 h

| SMILES | IC50 (Aldehyde oxidase 1) | IC50 (Tyrosinase; read-out: IC50) | IC50 (Catalase) | IC50 (Tyrosinase) | Activity (Spinacia oleracea) |
| --- | --- | --- | --- | --- | --- |
| CN1COCN(Cc2cnc(Cl)s2)/C1=N\[N+](=O)[O-] [THIAMETHOXAM] | > 1000 µM | > 1000 µM |  |  |  |
| O=C(O)c1ccc(Cl)nc1 [6-CHLORONICOTINIC ACID] | > 1000 µM | > 1000 µM | > 1000 µM |  |  |
| Oc1ncnc2[nH]ncc12 [ALLOPURINOL] | > 1000 µM | > 1000 µM |  |  |  |
| O=Cc1cncs1 [THIAZOLE-5-CARBALDEHYDE] | 890 µM | 7 µM |  |  |  |
| O=Cc1ccc(O)cc1 [4-HYDROXYBENZALDEHYDE] | 570 µM | 770 µM |  |  |  |
| O=C(O)c1cnc(Cl)s1 | > 1000 µM | > 1000 µM | > 1000 µM |  |  |
| O=Cc1ccoc1 [FURAN-3-CARBALDEHYDE] | 260 µM | 15 µM |  |  |  |
| O=C(O)C1CCOC1 (stereo not drawn) | > 1000 µM | > 1000 µM | > 1000 µM |  |  |
| CN/C(=N/CC1CCOC1)N[N+](=O)[O-] (stereo not drawn) [DINOTEFURAN] | > 1000 µM | > 1000 µM |  |  |  |
| O=C(c1ccc(OCCN2CCCCC2)cc1)c1c(-c2ccc(O)cc2)sc2cc(O)ccc12 [RALOXIFENE] | 1530 µM |  |  | ND(Insoluble) |  |
| O=Cc1cccnc1Cl [2-CHLORONICOTINALDEHYDE] | 350 µM | > 1000 µM |  |  |  |
| O=Cc1ccccc1 [BENZALDEHYDE] | 660 µM |  |  |  |  |
| CN/C(=N\[N+](=O)[O-])NCc1cnc(Cl)s1 [CLOTHIANIDINE] | > 1000 µM | > 1000 µM |  |  | Toxic |
| O=C(O)c1ccc(S)nc1 [6-MERCAPTONICOTINIC ACID] | > 1000 µM | 42 µM | > 1000 µM |  |  |
| C/C(=N\C#N)N(C)Cc1ccc(Cl)nc1 | > 1000 µM | 1740 µM |  |  | Toxic |
| N=C(N)NN [PIMAGEDINE] |  |  | 500 µM |  |  |
| O=C(O)c1ccc(Cl)cc1O | > 1000 µM | 520 µM | > 1000 µM |  |  |
| CCN(Cc1ccc(Cl)nc1)/C(=C/[N+](=O)[O-])NC | > 1000 µM | > 1000 µM |  |  |  |
| O=C(O)c1ccccc1 [BENZOIC ACID] | > 1000 µM | 270 µM | > 1000 µM |  |  |
| O=Cc1cnc(Cl)s1 | 360 µM | 64 µM |  |  |  |
| O=CC1CCOC1 (stereo not drawn) [TETRAHYDROFURAN-3-CARBALDEHYDE] | 360 µM | > 1000 µM |  |  |  |
| O=Cc1ccc(Cl)nc1 [6-CHLORONICOTINALDEHYDE] | 720 µM | 770 µM |  |  |  |
| O=C(O)c1cccnc1 [NIACIN] |  | > 1000 µM |  |  |  |
| O=Cc1cccnc1 [NICOTINALDEHYDE] | 600 µM | 28 µM |  |  |  |
| O=C(O)c1cccnc1S [2-MERCAPTONICOTINIC ACID] | > 1000 µM | 80 µM | > 1000 µM |  |  |
| O=Cc1ccco1 [FURFURAL] | 700 µM | 43 µM |  |  |  |
